Legend:
Test in all cases: cells
COLO-741 = type: functional, cell-based, Homo sapiens; settings: Homo sapiens, COLO-741
Description: SANGER: Inhibition of human COLO-741 cell growth in a cell viability assay.

COLO-829 = type: functional, cell-based, Homo sapiens; settings: Homo sapiens, COLO-829
Description: SANGER: Inhibition of human COLO-829 cell growth in a cell viability assay.

Calu-3 = type: functional, cell-based, Homo sapiens; settings: Homo sapiens, Calu-3
Description: SANGER: Inhibition of human Calu-3 cell growth in a cell viability assay.

EKVX = type: functional, cell-based, Homo sapiens; settings: Homo sapiens, EKVX
Description: SANGER: Inhibition of human EKVX cell growth in a cell viability assay.

ES8 = type: functional, cell-based, Homo sapiens; settings: Homo sapiens, ES8
Description: SANGER: Inhibition of human ES8 cell growth in a cell viability assay.

EW-16 = type: functional, cell-based, Homo sapiens; settings: Homo sapiens, EW-16
Description: SANGER: Inhibition of human EW-16 cell growth in a cell viability assay.

GAK = type: functional, cell-based, Homo sapiens; settings: Homo sapiens, GAK
Description: SANGER: Inhibition of human GAK cell growth in a cell viability assay.

GI-ME-N = type: functional, cell-based, Homo sapiens; settings: Homo sapiens, GI-ME-N
Description: SANGER: Inhibition of human GI-ME-N cell growth in a cell viability assay.

GMS-10 = type: functional, cell-based, Homo sapiens; settings: Homo sapiens, GMS-10
Description: SANGER: Inhibition of human GMS-10 cell growth in a cell viability assay.

HCC2218 = type: functional, cell-based; settings: Homo sapiens
Description: SANGER: Inhibition of human HCC2218 cell growth in a cell viability assay.

HCC38 = type: functional, cell-based, Homo sapiens; settings: Homo sapiens, HCC38
Description: SANGER: Inhibition of human HCC38 cell growth in a cell viability assay.

HCE-T = type: functional, cell-based, Homo sapiens; settings: Homo sapiens, HCE-T
Description: SANGER: Inhibition of human HCE-T cell growth in a cell viability assay.

HD-MY-Z = type: functional, cell-based, Homo sapiens; settings: Homo sapiens, HD-MY-Z
Description: SANGER: Inhibition of human HD-MY-Z cell growth in a cell viability assay.

HuP-T3 = type: functional, cell-based, Homo sapiens; settings: Homo sapiens, HuP-T3
Description: SANGER: Inhibition of human HuP-T3 cell growth in a cell viability assay.

IST-MES1 = type: functional, cell-based, Homo sapiens; settings: Homo sapiens, IST-MES1
Description: SANGER: Inhibition of human IST-MES1 cell growth in a cell viability assay.

KARPAS-299 = type: functional, cell-based; settings: Homo sapiens
Description: SANGER: Inhibition of human KARPAS-299 cell growth in a cell viability assay.

KP-N-YN = type: functional, cell-based; settings: Homo sapiens
Description: SANGER: Inhibition of human KP-N-YN cell growth in a cell viability assay.

KURAMOCHI = type: functional, cell-based; settings: Homo sapiens
Description: SANGER: Inhibition of human KURAMOCHI cell growth in a cell viability assay.

L-363 = type: functional, cell-based; settings: Homo sapiens
Description: SANGER: Inhibition of human L-363 cell growth in a cell viability assay.

LB1047-RCC = type: functional, cell-based, Homo sapiens; settings: Homo sapiens, LB1047-RCC
Description: SANGER: Inhibition of human LB1047-RCC cell growth in a cell viability assay.

LK-2 = type: functional, cell-based, Homo sapiens; settings: Homo sapiens, LK-2
Description: SANGER: Inhibition of human LK-2 cell growth in a cell viability assay.

MZ7-mel = type: functional, cell-based, Homo sapiens; settings: Homo sapiens, MZ7-mel
Description: SANGER: Inhibition of human MZ7-mel cell growth in a cell viability assay.

NB14 = type: functional, cell-based; settings: Homo sapiens
Description: SANGER: Inhibition of human NB14 cell growth in a cell viability assay.

NB6 = type: functional, cell-based, Homo sapiens; settings: Homo sapiens, NB6
Description: SANGER: Inhibition of human NB6 cell growth in a cell viability assay.

NCI-H2052 = type: functional, cell-based, Homo sapiens; settings: Homo sapiens, NCI-H2052
Description: SANGER: Inhibition of human NCI-H2052 cell growth in a cell viability assay.

NCI-H28 = type: functional, cell-based, Homo sapiens; settings: Homo sapiens, NCI-H28
Description: SANGER: Inhibition of human NCI-H28 cell growth in a cell viability assay.

NCI-N87 = type: functional, cell-based, Homo sapiens; settings: Homo sapiens, NCI-N87
Description: SANGER: Inhibition of human NCI-N87 cell growth in a cell viability assay.

NOMO-1 = type: functional, cell-based; settings: Homo sapiens
Description: SANGER: Inhibition of human NOMO-1 cell growth in a cell viability assay.

OCI-AML2 = type: functional, cell-based; settings: Homo sapiens
Description: SANGER: Inhibition of human OCI-AML2 cell growth in a cell viability assay.

OVCAR-5 = type: functional, cell-based, Homo sapiens; settings: Homo sapiens, OVCAR-5
Description: SANGER: Inhibition of human OVCAR-5 cell growth in a cell viability assay.

PC-3 = type: functional, cell-based, Homo sapiens; settings: Homo sapiens, PC-3
Description: SANGER: Inhibition of human PC-3 cell growth in a cell viability assay.

RD = type: functional, cell-based, Homo sapiens; settings: Homo sapiens, RD
Description: SANGER: Inhibition of human RD cell growth in a cell viability assay.

RPMI-8226 = type: functional, cell-based; settings: Homo sapiens
Description: SANGER: Inhibition of human RPMI-8226 cell growth in a cell viability assay.

RXF 393 = type: functional, cell-based; settings: Homo sapiens
Description: SANGER: Inhibition of human RXF393 cell growth in a cell viability assay.

SBC-1 = type: functional, cell-based; settings: Homo sapiens
Description: SANGER: Inhibition of human SBC-1 cell growth in a cell viability assay.

SF-295 = type: functional, cell-based, Homo sapiens; settings: Homo sapiens, SF-295; read-out: IC50
Description: SANGER: Inhibition of human SF295 cell growth in a cell viability assay.

SK-MEL-2 = type: functional, cell-based, Homo sapiens; settings: Homo sapiens, SK-MEL-2
Description: SANGER: Inhibition of human SK-MEL-2 cell growth in a cell viability assay.

SKG-IIIa = type: functional, cell-based, Homo sapiens; settings: Homo sapiens, SKG-IIIa
Description: SANGER: Inhibition of human SKG-IIIa cell growth in a cell viability assay.

SW837 = type: functional, cell-based, Homo sapiens; settings: Homo sapiens, SW837
Description: SANGER: Inhibition of human SW837 cell growth in a cell viability assay.

769-P = type: functional, cell-based, Homo sapiens; settings: Homo sapiens, 769-P
Description: SANGER: Inhibition of human 769-P cell growth in a cell viability assay.

786-0 = type: functional, cell-based, Homo sapiens; settings: Homo sapiens
Description: SANGER: Inhibition of human 786-0 cell growth in a cell viability assay.

8305C = type: functional, cell-based, Homo sapiens; settings: Homo sapiens, 8305C
Description: SANGER: Inhibition of human 8305C cell growth in a cell viability assay.

A2780 = type: functional, cell-based, Homo sapiens; settings: Homo sapiens, A2780
Description: SANGER: Inhibition of human A2780 cell growth in a cell viability assay.

BB30-HNC = type: functional, cell-based, Homo sapiens; settings: Homo sapiens, BB30-HNC
Description: SANGER: Inhibition of human BB30-HNC cell growth in a cell viability assay.

BHT-101 = type: functional, cell-based, Homo sapiens; settings: Homo sapiens, BHT-101
Description: SANGER: Inhibition of human BHT-101 cell growth in a cell viability assay.

Becker = type: functional, cell-based, Homo sapiens; settings: Homo sapiens, Becker
Description: SANGER: Inhibition of human Becker cell growth in a cell viability assay.

C-33-A = type: functional, cell-based, Homo sapiens; settings: Homo sapiens, C-33-A
Description: SANGER: Inhibition of human C-33-A cell growth in a cell viability assay.

CAL-27 = type: functional, cell-based, Homo sapiens; settings: Homo sapiens, CAL-27
Description: SANGER: Inhibition of human CAL-27 cell growth in a cell viability assay.

TE-10 = type: functional, cell-based, Homo sapiens; settings: Homo sapiens, TE-10
Description: SANGER: Inhibition of human TE-10 cell growth in a cell viability assay.

TE-9 = type: functional, cell-based, Homo sapiens; settings: Homo sapiens, TE-9
Description: SANGER: Inhibition of human TE-9 cell growth in a cell viability assay.

UMUC3 = type: functional, cell-based, Homo sapiens; settings: Homo sapiens, UMUC3
Description: SANGER: Inhibition of human UM-UC-3 cell growth in a cell viability assay.

HOP-62 = type: functional, cell-based, Homo sapiens; settings: Homo sapiens, HOP-62
Description: SANGER: Inhibition of human HOP-62 cell growth in a cell viability assay.

## O=C(c1cc(Cc2n[nH]c(=O)c3ccccc23)ccc1F)N1CCN(C(=O)C2CC2)CC1 [OLAPARIB]
COLO-741
  IC50: > 5 µM
COLO-829
  IC50: > 5 µM
Calu-3
  IC50: > 5 µM
EKVX
  IC50: > 5 µM
ES8
  IC50: 1.72 µM
EW-16
  IC50: > 5 µM
GAK
  IC50: > 5 µM
GI-ME-N
  IC50: > 5 µM
GMS-10
  IC50: > 5 µM
HCC2218
  IC50: 3.73 µM
HCC38
  IC50: > 5 µM
HCE-T
  IC50: > 5 µM
HD-MY-Z
  IC50: > 5 µM
HuP-T3
  IC50: > 5 µM
IST-MES1
  IC50: > 5 µM
KARPAS-299
  IC50: > 5 µM
KP-N-YN
  IC50: > 5 µM
KURAMOCHI
  IC50: > 5 µM
L-363
  IC50: > 5 µM
LB1047-RCC
  IC50: > 5 µM
LK-2
  IC50: > 5 µM
MZ7-mel
  IC50: > 5 µM
NB14
  IC50: > 5 µM
NB6
  IC50: > 5 µM
NCI-H2052
  IC50: > 5 µM
NCI-H28
  IC50: > 5 µM
NCI-N87
  IC50: > 5 µM
NOMO-1
  IC50: > 5 µM
OCI-AML2
  IC50: > 5 µM
OVCAR-5
  IC50: > 5 µM
PC-3
  IC50: > 5 µM
RD
  IC50: > 5 µM
RPMI-8226
  IC50: > 5 µM
RXF 393
  IC50: > 5 µM
SBC-1
  IC50: 4.81 µM
SF-295
  IC50: > 5 µM
SK-MEL-2
  IC50: > 5 µM
SKG-IIIa
  IC50: > 5 µM
SW837
  IC50: > 5 µM
769-P
  IC50: > 5 µM
786-0
  IC50: > 5 µM
8305C
  IC50: > 5 µM
A2780
  IC50: > 5 µM
BB30-HNC
  IC50: > 5 µM
BHT-101
  IC50: > 5 µM
Becker
  IC50: > 5 µM
C-33-A
  IC50: > 5 µM
CAL-27
  IC50: > 5 µM
TE-10
  IC50: > 5 µM
TE-9
  IC50: > 5 µM
UMUC3
  IC50: > 5 µM

## Cn1cc(C2=C(c3ccc(Cl)cc3Cl)C(=O)NC2=O)c2ccccc21 [SB-216763]
COLO-741
  IC50: > 10 µM
COLO-829
  IC50: > 10 µM
Calu-3
  IC50: > 10 µM
EKVX
  IC50: > 10 µM
ES8
  IC50: > 10 µM
EW-16
  IC50: > 10 µM
GAK
  IC50: > 10 µM
GI-ME-N
  IC50: > 10 µM
GMS-10
  IC50: > 10 µM
HCC38
  IC50: > 10 µM
HCE-T
  IC50: > 10 µM
HD-MY-Z
  IC50: > 10 µM
HOP-62
  IC50: 0.853 µM
HuP-T3
  IC50: > 10 µM
IST-MES1
  IC50: > 10 µM
KARPAS-299
  IC50: > 10 µM
KP-N-YN
  IC50: > 10 µM
KURAMOCHI
  IC50: > 10 µM
L-363
  IC50: > 10 µM
LB1047-RCC
  IC50: > 10 µM
LK-2
  IC50: > 10 µM
MZ7-mel
  IC50: > 10 µM
NB14
  IC50: > 10 µM
NB6
  IC50: > 10 µM
NCI-H2052
  IC50: > 10 µM
NCI-H28
  IC50: > 10 µM
NCI-N87
  IC50: > 10 µM
NOMO-1
  IC50: > 10 µM
OCI-AML2
  IC50: > 10 µM
OVCAR-5
  IC50: > 10 µM
PC-3
  IC50: > 10 µM
RD
  IC50: > 10 µM
RPMI-8226
  IC50: > 10 µM
RXF 393
  IC50: > 10 µM
SBC-1
  IC50: > 10 µM
SF-295
  IC50: > 10 µM
SK-MEL-2
  IC50: > 10 µM
SKG-IIIa
  IC50: > 10 µM
SW837
  IC50: > 10 µM
769-P
  IC50: > 10 µM
786-0
  IC50: > 10 µM
8305C
  IC50: > 10 µM
A2780
  IC50: > 10 µM
BB30-HNC
  IC50: > 10 µM
BHT-101
  IC50: > 10 µM
Becker
  IC50: > 10 µM
C-33-A
  IC50: > 10 µM
CAL-27
  IC50: > 10 µM
TE-10
  IC50: > 10 µM
TE-9
  IC50: > 10 µM
UMUC3
  IC50: > 10 µM

From ChEMBL document CHEMBL1201861, “Genomics of Drug Sensitity in Cancer screening data, Wellcome Trust Sanger Institute”
